For one data set, the system named is red blood cells (RBCs). Briefly: SAMC incubated with red blood cells: formation and localization of AllylSH and DADS. As to conditions: for extracellular AllylSH concentration: RBCs with 0.5 mM SAMC. It is filed as cell-based. How it is done: For these experiments, 0.25 ml of packed RBCs were suspended in 1.75 ml of phosphate buffer solution (PBS) along with an initial concentration 0.5 mM of SAMC.
The experimental results are graphed in FIG. 3.
The significant effect of glucose is due in part to the energy requirement for the reduction of GSSG to GSH by glutathione reductase, and the need for this “reductive power” to increase the concentration of thiols relative to the concentration of disulfides.

Data set [1] in a line: plasma albumin level as measure of plasma thiol/disulfide redox (applicant). The data set is classed as in vivo, human. The text has this:
Subsequently, an alternative, simpler assay procedure for the thiol/disulfide ratio was found in the literature. Other researchers had determined that the level of plasma albumin correlates linearly with the thiol/disulfide redox (BLOOD92:59, in which paper this redox relationship is expressed by the cystine/thiol ratio).
This method of determination of the plasma redox is of great interest to the applicant because the albumin concentration is one of the standard measurements performed in medical lab reports. This meant that historical data was available that could show the age-related decline in albumin level and confirm its reversal with the administration of dietary supplement capsules containing protein bound allyl mercaptan. It could also be used to confirm that the effect was reversible (by discontinuing the administration of the capsules) and repeatable (by the resumption of the administration of the capsules).
The historical albumin levels for the applicant are as follows:
Over the next 3 months, an experiment was performed to determine whether this effect was reversible, and then to see if the effect was repeatable:
The age related initial decline of approximately −0.05 per year is also shown extended by a dotted trend line. The presumed departure from the trend that occurred when the supplement use was started is indicated by the first solid line segment.

For data set [2] the following is noted: n-octanol/water; cited from earlier work.
For data set [3] the following is noted: HIV patients, 7 months, 600 mg/day to 3600 mg/day; cited from earlier work.
The conditions of data set [4]: 8 weeks, 8000 mg/day; cited from earlier work.
For data set [5] the following is noted: in vivo; cited from earlier work.
For a further data set, the system named is cells. As to conditions: cited from earlier work.
For another data set, the system named is mucosal cell. As to conditions: within 3 hours; cited from earlier work.
For data set [6] the following is noted: first hour after consumption; cited from earlier work.
Another data set deals with trypsin enzyme inhibitor. The conditions noted are these: soy flour, cysteine 2% by weight, 65 degrees C. for 1 hour; cited from earlier work.
The next data set concerns acetaminophen. The conditions noted are these: mice, cited from earlier work.
In another data set the test system is heapatocytes. As to conditions: hepatocytes exposed to acetaminophen, among 8 cysteine prodrugs tested; cited from earlier work.
The conditions of data set [7]: cited from earlier work.

“Also recorded” adds a separate entry of the source. Like-named read-outs stand apart in the source and are kept apart here.

Turning to `C=CCS` [AllylSH, AllylThiol], the membrane permeability result with red blood cells (RBCs) is given as “membrane permeable”. The “extracellular AllylSH concentration” value was “continued to rise significantly” in the data set on red blood cells (RBCs) (fed glucose) and “no increase in AllylSH after the initial rise” with red blood cells (RBCs) (glucose starved). Also, the albumin level was determined as 5.1 g/dL in [1] (180 mg AllylSH each day); 4.9 g/dL in [1] (+1 mo., AllylSH consumption discontinued); 5.0 g/dL in data set [1] (donor one, ~20 mg AllylSH each day); 5.0 g/dL in data set [1] (donor two, ~20 mg AllylSH each day); 4.5 g/dL in data set [1] (second +1 mo., AllylSH consumption still discontinued); 4.7 g/dL in data set [1] (third +1 mo., consumption resumed at 180 mg AllylSH/day). In data set [1] (~5 mg AllylSH/day), the albumin level was 4.6 g/dL.

`C=CCSSCC=C` [DADS, Diallyl Disulfide]: the partition coefficient in data set [2] is given as 25.

With `CC(=O)N[C@@H](CS)C(=O)O` [NAC, N-acetylcysteine], in [3], the plasma albumin increase entry is on record as “approximately 5%”. Moreover, in data set [4], the toxicity result is given as “no reported toxicity” and the “whole blood glutathione increase” value is reported as “approximately 10%”. Also, in data set [5], the toxicity entry is recorded as “relatively non-toxic”.

Turning to `O=C1N[C@H](C(=O)O)CS1` [OTZ, L-2-Oxo-thiazolidine], the toxicity result in data set [5] was “relatively non-toxic”.

Turning to `C=CCSSC[C@H](N)C(=O)O` [SAMC, S-AllylMercaptoCysteine], the “intracellular formation of AllylSH” value in the data set with red blood cells (RBCs) (RBCs, 0.5 mM SAMC, 10 and 30 minutes, with glucose (10 mM) vs without glucose) was “significantly higher”. Besides, in the data set on cells, the “total glutathione level of cells” value is reported as “significantly increase; also recorded: significant increases”.

With `Cc1c(C)c2c(c(C)c1O)CC[C@@](C)(CCC[C@H](C)CCC[C@H](C)CCCC(C)C)O2` [alpha-tocopherol, reference compound], the partition coefficient in data set [2] is recorded as 550.

As to `[AsH3]` [arsenic], the “glutathione concentration in the mucosal cell” value with mucosal cell is on record as “twice the normal concentration”. Besides, in data set [6], the “excreted directly from the liver to the bile” value is on record as approximately 40%.

As for `N[C@@H](CS)C(=O)O` [cysteine, Cysteine], the “deactivation of trypsin enzyme inhibitor” value in the data set with trypsin enzyme inhibitor is reported as “over 90%”.

On to D-glucose-L-cysteine [DGC], for which the figures for the “hepatic injury from acetaminophen administration” value in the data set on acetaminophen (administered 4 hours previously) and in the data set on acetaminophen (administered simultaneously) were “significantly reduced” and “not effective”, respectively. The “raising the GSH level” value in the data set on heapatocytes is on record as “most effective”.

For the compound sodium arsenate, the liver glutathione level in [7] (protein deficient (6%) rats, control 74) is recorded as 134 micrograms per gram; in [7] (well fed rats (18% protein in the diet), control 88), 123 micrograms per gram.

(Values after patent US7678833B2 (Allium Vitalis Incorporated, priority 2006, dated 2010).)
